In patent US8134007B2, “Pyridine derivatives” (Pfizer Inc., priority 2007, dated 2012):
Where two headings read alike, the source gives them in different places.

Columns and labels:
Type in all cases: cell-based
[1] = biological target: T1, Human Nav1.8 (Homo sapiens, UniProt Q9Y5Y9); experiment: VIPR Assay for Nav1.8 Compounds (FRET membrane potential, deltamethrin opener); details: VIPR FRET membrane potential assay, deltamethrin opener; average of replicates; read-out: Nav1.8 IC50
T1 construct: expressed in transfected cells; host or cells: HEK293
T1 sequence (Q9Y5Y9 whole entry): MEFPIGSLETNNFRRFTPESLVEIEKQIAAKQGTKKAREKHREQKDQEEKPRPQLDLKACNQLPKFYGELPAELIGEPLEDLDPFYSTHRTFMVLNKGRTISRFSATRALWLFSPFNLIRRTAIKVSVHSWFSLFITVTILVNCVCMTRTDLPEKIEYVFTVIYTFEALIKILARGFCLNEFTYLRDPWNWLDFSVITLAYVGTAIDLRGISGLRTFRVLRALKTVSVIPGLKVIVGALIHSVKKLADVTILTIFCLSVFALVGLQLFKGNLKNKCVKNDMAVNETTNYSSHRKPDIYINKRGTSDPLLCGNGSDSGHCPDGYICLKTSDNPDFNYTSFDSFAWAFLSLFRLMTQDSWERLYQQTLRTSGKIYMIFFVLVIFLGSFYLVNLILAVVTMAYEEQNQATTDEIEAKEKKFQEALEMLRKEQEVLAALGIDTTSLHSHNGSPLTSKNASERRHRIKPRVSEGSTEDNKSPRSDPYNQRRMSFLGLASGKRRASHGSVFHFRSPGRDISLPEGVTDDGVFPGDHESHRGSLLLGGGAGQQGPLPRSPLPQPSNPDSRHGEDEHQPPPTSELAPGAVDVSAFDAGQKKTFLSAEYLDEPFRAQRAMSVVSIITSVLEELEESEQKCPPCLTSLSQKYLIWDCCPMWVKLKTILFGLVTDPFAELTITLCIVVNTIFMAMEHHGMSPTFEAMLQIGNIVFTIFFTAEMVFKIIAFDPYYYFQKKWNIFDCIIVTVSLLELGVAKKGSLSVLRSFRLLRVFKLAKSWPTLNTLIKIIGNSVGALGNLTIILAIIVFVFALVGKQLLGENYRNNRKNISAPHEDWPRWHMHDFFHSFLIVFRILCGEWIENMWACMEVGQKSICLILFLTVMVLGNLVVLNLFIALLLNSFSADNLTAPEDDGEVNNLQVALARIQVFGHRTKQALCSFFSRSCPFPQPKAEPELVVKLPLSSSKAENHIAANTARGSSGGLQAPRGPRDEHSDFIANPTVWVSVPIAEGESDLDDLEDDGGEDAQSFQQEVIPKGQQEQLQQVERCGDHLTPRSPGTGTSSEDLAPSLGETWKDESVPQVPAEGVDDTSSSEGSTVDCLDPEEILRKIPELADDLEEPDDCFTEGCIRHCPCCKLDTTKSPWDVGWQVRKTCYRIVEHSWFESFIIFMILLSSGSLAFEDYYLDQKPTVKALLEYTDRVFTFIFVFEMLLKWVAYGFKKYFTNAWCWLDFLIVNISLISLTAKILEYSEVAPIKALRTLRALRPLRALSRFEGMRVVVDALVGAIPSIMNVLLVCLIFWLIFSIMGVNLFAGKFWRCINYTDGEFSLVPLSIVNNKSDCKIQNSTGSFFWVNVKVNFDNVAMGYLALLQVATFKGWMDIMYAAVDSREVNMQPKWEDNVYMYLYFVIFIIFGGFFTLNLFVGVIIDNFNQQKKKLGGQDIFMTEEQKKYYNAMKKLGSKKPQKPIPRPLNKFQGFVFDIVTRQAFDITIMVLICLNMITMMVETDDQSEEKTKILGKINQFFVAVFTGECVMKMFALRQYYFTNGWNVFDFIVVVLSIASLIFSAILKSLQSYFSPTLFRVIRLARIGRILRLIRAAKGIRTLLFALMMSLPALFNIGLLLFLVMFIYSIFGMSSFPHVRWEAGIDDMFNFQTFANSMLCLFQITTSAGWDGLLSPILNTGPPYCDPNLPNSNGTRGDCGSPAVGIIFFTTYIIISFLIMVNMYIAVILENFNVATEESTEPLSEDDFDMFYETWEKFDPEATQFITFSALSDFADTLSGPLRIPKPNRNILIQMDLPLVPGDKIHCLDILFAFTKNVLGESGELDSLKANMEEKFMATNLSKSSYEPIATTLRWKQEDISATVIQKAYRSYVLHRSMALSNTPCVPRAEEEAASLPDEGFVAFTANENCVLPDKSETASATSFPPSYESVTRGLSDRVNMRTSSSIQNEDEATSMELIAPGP

[2] = system: tetrodotoxin-sensitive voltage-gated sodium channels including NaV1.2, NaV1.3 and NaV1.7; experiment: TTX-S Assay (VIPR, SHSY-5Y cell line, veratridine opener)
[3] = biological target: T2, Human Nav1.5 (Homo sapiens, UniProt Q14524); experiment: Nav1.5 Assay (VIPR, HEK293 cells); details: HEK293 cells expressing Human Nav1.5; average of replicates; read-out: Nav1.5 IC50
T2 construct: expressed in transfected cells; host or cells: HEK293
T2 sequence (Q14524 whole entry): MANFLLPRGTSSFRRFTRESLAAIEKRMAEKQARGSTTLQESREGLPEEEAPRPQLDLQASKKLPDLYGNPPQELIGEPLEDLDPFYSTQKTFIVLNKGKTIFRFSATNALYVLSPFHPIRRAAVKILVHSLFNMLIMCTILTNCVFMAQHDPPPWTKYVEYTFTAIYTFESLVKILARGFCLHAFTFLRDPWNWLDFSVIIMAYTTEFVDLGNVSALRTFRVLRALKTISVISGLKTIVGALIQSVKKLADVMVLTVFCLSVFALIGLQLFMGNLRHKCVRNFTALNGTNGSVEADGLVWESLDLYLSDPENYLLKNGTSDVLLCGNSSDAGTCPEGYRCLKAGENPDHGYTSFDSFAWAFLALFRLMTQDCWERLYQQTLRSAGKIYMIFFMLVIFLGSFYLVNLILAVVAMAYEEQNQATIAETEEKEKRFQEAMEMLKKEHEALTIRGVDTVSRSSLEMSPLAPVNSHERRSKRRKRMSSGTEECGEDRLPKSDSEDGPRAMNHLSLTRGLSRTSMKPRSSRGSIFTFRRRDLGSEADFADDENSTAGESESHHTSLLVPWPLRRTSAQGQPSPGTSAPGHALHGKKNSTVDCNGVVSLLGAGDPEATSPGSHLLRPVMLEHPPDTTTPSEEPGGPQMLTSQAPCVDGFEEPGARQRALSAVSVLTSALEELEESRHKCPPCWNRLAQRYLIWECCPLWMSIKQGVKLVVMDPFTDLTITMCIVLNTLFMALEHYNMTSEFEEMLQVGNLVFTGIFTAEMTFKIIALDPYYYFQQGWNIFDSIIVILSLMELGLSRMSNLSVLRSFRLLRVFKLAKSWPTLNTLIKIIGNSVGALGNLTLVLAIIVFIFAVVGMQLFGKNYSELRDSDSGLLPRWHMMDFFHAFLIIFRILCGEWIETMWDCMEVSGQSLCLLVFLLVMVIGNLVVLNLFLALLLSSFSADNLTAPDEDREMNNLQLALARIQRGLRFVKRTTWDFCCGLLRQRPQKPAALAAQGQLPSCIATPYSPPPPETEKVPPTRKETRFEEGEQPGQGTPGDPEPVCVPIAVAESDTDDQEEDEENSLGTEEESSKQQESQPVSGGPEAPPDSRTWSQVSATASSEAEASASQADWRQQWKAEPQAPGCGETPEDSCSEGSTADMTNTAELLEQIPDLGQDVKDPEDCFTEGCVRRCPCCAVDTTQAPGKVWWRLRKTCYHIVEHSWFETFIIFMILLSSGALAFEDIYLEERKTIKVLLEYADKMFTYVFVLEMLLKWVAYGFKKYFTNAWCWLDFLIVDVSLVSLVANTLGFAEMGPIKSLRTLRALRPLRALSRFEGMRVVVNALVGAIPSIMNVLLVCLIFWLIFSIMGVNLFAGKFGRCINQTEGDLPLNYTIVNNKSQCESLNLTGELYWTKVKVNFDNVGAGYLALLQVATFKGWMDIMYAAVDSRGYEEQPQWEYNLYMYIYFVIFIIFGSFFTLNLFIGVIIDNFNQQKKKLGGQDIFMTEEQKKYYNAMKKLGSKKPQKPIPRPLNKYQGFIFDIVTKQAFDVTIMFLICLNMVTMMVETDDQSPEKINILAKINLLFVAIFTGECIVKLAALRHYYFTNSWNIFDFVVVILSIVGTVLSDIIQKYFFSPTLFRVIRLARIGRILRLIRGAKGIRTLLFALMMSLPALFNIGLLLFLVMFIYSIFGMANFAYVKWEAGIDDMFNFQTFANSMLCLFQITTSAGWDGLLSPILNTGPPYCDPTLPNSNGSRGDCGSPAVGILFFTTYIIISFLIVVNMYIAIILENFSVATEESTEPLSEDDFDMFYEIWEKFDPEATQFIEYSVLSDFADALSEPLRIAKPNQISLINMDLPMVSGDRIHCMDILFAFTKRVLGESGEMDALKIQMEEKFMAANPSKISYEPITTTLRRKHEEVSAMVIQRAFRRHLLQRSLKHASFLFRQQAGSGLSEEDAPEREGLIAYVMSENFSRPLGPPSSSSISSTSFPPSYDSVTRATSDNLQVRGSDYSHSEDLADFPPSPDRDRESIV
Protocol: The Nav1.5 assay is performed in HEK293 cells expressing Human Nav1.5 in the same way as the Nav1.8 assay.
Where replicate experiments were conducted resulting in multiple sets of data for a test compound, the data presented represent the average value from all replicate experiments.

[4] = read-out: TTX-S IC50, veratridine 50 μM opener, average of replicates

Which results are given for `Cn1nccc1C(=O)Nc1ccc(-c2ccccc2Cl)c(N)n1` [Example 1, N-[6-Amino-5-(2-chlorophenyl)pyridin-2-yl]-1-methyl-1H-pyrazole-5-carboxamide]?
IC50 [1]: 5.8 µM; IC50 [2, 4]: > 32 µM; IC50 [3]: 24 µM

With `Cc1nocc1C(=O)Nc1ccc(-c2ccccc2C(F)(F)F)c(N)n1` [Example 2, N-{6-Amino-5-[2-(trifluoromethyl)phenyl]pyridin-2-yl}-3-methylisoxazole-4-carboxamide] as the compound, how does the IC50 [1] read?
The IC50 was 1.7 µM.

And the IC50 [2, 4]?
Its IC50 is 30 µM.

What about the IC50 [3] of the same compound?
The IC50 was > 32 µM.

Which results are given for `Cn1nccc1C(=O)Nc1ccc(-c2cc(Cl)ccc2Cl)c(N)n1` [Example 3, N-[6-Amino-5-(2,5-dichlorophenyl)pyridin-2-yl]-1-methyl-1H-pyrazole-5-carboxamide]?
IC50 [1]: 0.9 µM; IC50 [2, 4]: 11 µM; IC50 [3]: 15 µM

What does the source list for `COc1ccc(Cl)c(-c2ccc(NC(=O)c3ccnn3C)nc2N)c1` [Example 5, N-[6-Amino-5-(2-chloro-5-methoxyphenyl)pyridin-2-yl]-1-methyl-1H-pyrazole-5-carboxamide]?
IC50 [1]: 0.9 µM; IC50 [2, 4]: > 32 µM; IC50 [3]: > 32 µM

What does the source list for `Cn1nccc1C(=O)Nc1ccc(-c2cc(F)ccc2Cl)c(N)n1` [Example 6, N-[6-Amino-5-(2-chloro-5-fluorophenyl)pyridin-2-yl]-1-methyl-1H-pyrazole-5-carboxamide]?
IC50 [1]: 1.1 µM; IC50 [2, 4]: 23 µM; IC50 [3]: 13 µM

Which IC50 [1] does the source give for `COc1cc(Cl)c(Cl)c(-c2ccc(NC(=O)c3ccnn3C)nc2N)c1` [Example 7, N-[6-Amino-5-(2,3-dichloro-5-methoxyphenyl)pyridin-2-yl]-1-methyl-1H-pyrazole-5-carboxamide] here?
The IC50 was 0.63 µM.

What about the IC50 [2, 4] of the same compound?
Its IC50 is 9.2 µM.

What about the IC50 [3] of the same compound?
The IC50 was 6.3 µM.

Which results are given for `COc1cc(Cl)cc(-c2ccc(NC(=O)c3ccnn3C)nc2N)c1Cl` [Example 8, N-[6-Amino-5-(2,5-dichloro-3-methoxyphenyl)pyridin-2-yl]-1-methyl-1H-pyrazole-5-carboxamide]?
IC50 [1]: 1.6 µM; IC50 [2, 4]: 7.6 µM; IC50 [3]: 20 µM

Which results are given for `Cn1nccc1C(=O)Nc1ccc(-c2cccc(Cl)c2Cl)c(N)n1` [Example 9, N-[6-Amino-5-(2,3-dichlorophenyl)pyridin-2-yl]-1-methyl-1H-pyrazole-5-carboxamide]?
IC50 [1]: 4.2 µM; IC50 [2, 4]: > 32 µM; IC50 [3]: 27 µM

Which results are given for `Cn1nccc1C(=O)Nc1ccc(-c2ccc(F)cc2Cl)c(N)n1` [Example 10, N-[6-Amino-5-(2-chloro-4-fluorophenyl)pyridin-2-yl]-1-methyl-1H-pyrazole-5-carboxamide]?
IC50 [1]: 25 µM; IC50 [2, 4]: > 32 µM; IC50 [3]: > 32 µM

`Cn1nccc1C(=O)Nc1ccc(-c2ccccc2OC(F)(F)F)c(N)n1` [Example 11, N-{6-Amino-5-[2-(trifluoromethoxy)pheny]pyridin-2-yl}-1-methyl-1H-pyrazole-5-carboxamide] was tested. Which IC50 [1] did it give?
The IC50 was 2.4 µM.

And the IC50 ([2]; veratridine 50 μM opener, average of replicates, read-out: TTX-S IC50)?
Its IC50 is 11 µM.

And the IC50 [3]?
The IC50 was 18 µM.

How did the IC50 [1] turn out when `Cn1nccc1C(=O)Nc1ccc(-c2cc(F)ccc2C(F)(F)F)c(N)n1` [Example 12, N-{6-Amino-5-[5-fluoro-2-(trifluoromethyl)phenyl]pyridin-2-yl}-1-methyl-1H-pyrazole-5-carboxamide] was run?
Its IC50 is 3 µM.

And the IC50 [2, 4]?
The IC50 was > 32 µM.

What about the IC50 [3] of the same compound?
Its IC50 is > 32 µM.

Which results are given for `Cn1nccc1C(=O)Nc1ccc(-c2cccc(F)c2Cl)c(N)n1` [Example 13, N-[6-Amino-5-(2-chloro-3-fluorophenyl)pyridin-2-yl]-1-methyl-1H-pyrazole-5-carboxamide]?
IC50 [1]: 8.8 µM; IC50 [2, 4]: > 32 µM; IC50 [3]: > 32 µM

Which results are given for `Cn1nccc1C(=O)Nc1ccc(-c2ccccc2C(F)(F)F)c(N)n1` [Example 14, N-{6-Amino-5-[2-(trifluoromethyl)phenyl]pyridin-2-yl}-1-methyl-1H-pyrazole-5-carboxamide]?
IC50 [1]: 8.4 µM; IC50 [2, 4]: > 32 µM; IC50 [3]: > 32 µM

What does the source list for `Cn1nccc1C(=O)Nc1ccc(-c2ccc(Cl)cc2Cl)c(N)n1` [Example 15, N-[6-Amino-5-(2,4-dichlorophenyl)pyridin-2-yl]-1-methyl-1H-pyrazole-5-carboxamide]?
IC50 [1]: 10 µM; IC50 [2, 4]: 21 µM; IC50 [3]: 13 µM

`Cn1nccc1C(=O)Nc1ccc(-c2cc(Cl)ccc2OC(F)(F)F)c(N)n1` [Example 16, N-{6-Amino-5-[5-chloro-2-(trifluoromethoxy)phenyl]pyridin-2-yl}-1-methyl-1H-pyrazole-5-carboxamide] was tested. Which IC50 [1] did it give?
The IC50 was 1.9 µM.

What about the IC50 [2, 4] of the same compound?
The IC50 was 9.6 µM.

What about the IC50 [3] of the same compound?
The IC50 was 11 µM.

For `Cn1nccc1C(=O)Nc1ccc(-c2cc(OC(F)(F)F)ccc2F)c(N)n1` [Example 17, N-{6-Amino-5-[2-fluoro-5-(trifluoromethoxy)phenyl]pyridin-2-yl}-1-methyl-1H-pyrazole-5-carboxamide], which IC50 [1] is on record?
The IC50 was 3.4 µM.

And the IC50 [2, 4]?
Its IC50 is 7.7 µM.

And the IC50 [3]?
The IC50 was 19 µM.

What does the source list for `Cn1nccc1C(=O)Nc1ccc(-c2cc(OC(F)(F)F)ccc2Cl)c(N)n1` [Example 18, N-{6-Amino-5-[2-chloro-5-(trifluoromethoxy)phenyl]pyridin-2-yl}-1-methyl-1H-pyrazole-5-carboxamide]?
IC50 [1]: 1.6 µM; IC50 [2, 4]: 1.8 µM; IC50 [3]: 8.5 µM

Which results are given for `Cn1nccc1C(=O)Nc1ccc(-c2ccccc2OC(F)F)c(N)n1` [Example 19, N-{6-Amino-5-[2-(difluoromethoxy)phenyl]pyridin-2-yl}-1-methyl-1H-pyrazole-5-carboxamide]?
IC50 [1]: 14 µM; IC50 [2, 4]: 25 µM; IC50 [3]: > 32 µM

Which IC50 [1] does the source give for `Nc1nc(NC(=O)c2ccno2)ccc1-c1cc(Cl)ccc1Cl` [Example 75, N-[6-Amino-5-(2,5-dichlorophenyl)pyridin-2-yl]isoxazole-5-carboxamide] here?
The IC50 was 1.4 µM.

What about the IC50 [2, 4] of the same compound?
Its IC50 is 24 µM.

With `COc1ccc(Cl)c(-c2ccc(NC(=O)c3ccno3)nc2N)c1` [Example 76, N-[6-Amino-5-(2-chloro-5-methoxyphenyl)pyridin-2-yl]isoxazole-5-carboxamide] as the compound, how does the IC50 [1] read?
The IC50 was 0.86 µM.

And the IC50 [2, 4]?
Its IC50 is 6.5 µM.

What does the source list for `Nc1nc(NC(=O)c2ccno2)ccc1-c1ccccc1Cl` [Example 77, N-[6-Amino-5-(2-chlorophenyl)pyridin-2-yl]isoxazole-5-carboxamide]?
IC50 [1]: 5 µM; IC50 [2, 4]: > 32 µM

What does the source list for `Cn1nncc1C(=O)Nc1ccc(-c2ccc(Cl)cc2Cl)c(N)n1` [Example 79, N-[6-Amino-5-(2,4-dichlorophenyl)pyridin-2-yl]-1-methyl-1H-1,2,3-triazole-5-carboxamide]?
IC50 [1]: 5.8 µM; IC50 [2, 4]: 22 µM

How did the IC50 [1] turn out when `Nc1nc(NC(=O)c2ccccc2)ccc1-c1cc(Cl)ccc1Cl` [Example 97] was run?
Its IC50 is 1.9 µM.

What about the IC50 [2, 4] of the same compound?
The IC50 was 5.4 µM.

What does the source list for `Nc1nc(NC(=O)c2ccccc2)ccc1-c1ccccc1Cl` [Example 98]?
IC50 [1]: 2 µM; IC50 [2, 4]: 10 µM

With `Nc1nc(NC(=O)c2ccc(Cl)cc2)ccc1-c1cc(Cl)ccc1Cl` [Example 100] as the compound, how does the IC50 [1] read?
The IC50 was 6.3 µM.

What about the IC50 [2, 4] of the same compound?
The IC50 was 4.4 µM.

For `Nc1nc(NC(=O)c2ccccc2Cl)ccc1-c1cc(Cl)ccc1Cl` [Example 101], which IC50 [1] is on record?
The IC50 was 3.7 µM.

What about the IC50 [2, 4] of the same compound?
Its IC50 is 6.2 µM.

What does the source list for `COc1cccc(C(=O)Nc2ccc(-c3cc(Cl)ccc3Cl)c(N)n2)c1` [Example 102]?
IC50 [1]: 2.3 µM; IC50 [2, 4]: 5.4 µM

What does the source list for `COc1ccc(C(=O)Nc2ccc(-c3cc(Cl)ccc3Cl)c(N)n2)cc1OC` [Example 103]?
IC50 [1]: 4.1 µM; IC50 [2, 4]: 8.4 µM

Which results are given for `COc1cc(OC)cc(C(=O)Nc2ccc(-c3cc(Cl)ccc3Cl)c(N)n2)c1` [Example 104]?
IC50 [1]: 3.3 µM; IC50 [2, 4]: 8 µM

With `COc1ccc(C(=O)Nc2ccc(-c3cc(Cl)ccc3Cl)c(N)n2)c(OC)c1` [Example 105] as the compound, how does the IC50 [1] read?
Its IC50 is 3.5 µM.

What about the IC50 [2, 4] of the same compound?
Its IC50 is 7.7 µM.
